Experimental data: patent publication US20250134103A1, “PESTICIDAL MIXTURES COMPRISING AN IS[…]” (priority 2021, published 2025)
Like-named read-outs stand apart in the source and are kept apart here.

Assays:
Assay type in all cases: in vivo
[1] = test system: yellow fever mosquito (Aedes aegypti); test: whole plant or invertebrate
Experimental: For evaluating control of yellow fever mosquito (Aedes aegypti) the test unit consisted of 96-well-microtiter plates containing 200 μl of tap water per well and 5-15 freshly hatched A. aegypti larvae.
The compounds or mixtures were formulated using a solution containing 75% water and 25% DMSO. Different concentrations of formulated compounds or mixtures were sprayed onto the insect diet at 2.5 μl, using a custom-built micro atomizer, at two replications.
(§1) For experimental mixtures in these tests identical volumes of both mixing partners at the desired concentrations respectively, were mixed together.
After application, microtiter plates were incubated at 28±1° C., 80±5% RH for 2 days. Larval mortality was then visually assessed. For the mixture tested the results are listed in Table 2.1 to 2.11, wherein the * marks synergistic control effect according to Colby's equation.

[2] = test system: tobacco budworm (Heliothis virescens); test: Test 1: control of tobacco budworm, 96-well microtiter plates with insect diet and eggs
Experimental: For evaluating control of tobacco budworm (Heliothis virescens) the test unit consisted of 96-well-microtiter plates containing an insect diet and 15-25 H. virescens eggs.
The compounds or mixtures were formulated using a solution containing 75% water and 25% DMSO. Different concentrations of formulated compounds or mixtures were sprayed onto the insect diet at 10 μl, using a custom-built micro atomizer, at two replications.
For experimental mixtures in these tests, identical volumes of both mixing partners at the desired concentrations respectively, were mixed together.
After application, microtiter plates were incubated at 28±1° C., 80±5% RH for 5 days. Egg and larval mortality were then visually assessed. For the mixture tested the results are listed in Tables 1.1 to 1.7, wherein the * marks synergistic control effect according to Colby's equation.

[3] = test system: green peach aphid (Myzus persicae); test: Test 3: control of green peach aphid through systemic means, artificial diet under membrane; conditions: aphid mortality and fecundity after 3 days
Text: For evaluating control of green peach aphid (Myzus persicae) through systemic means the test unit consisted of 96-well-microtiter plates containing liquid artificial diet under an artificial membrane.
Different concentrations of formulated compounds or mixtures were pipetted into the aphid diet, using a custom built pipetter, at two replications.
as §1
After application, 5-8 adult aphids were placed on the artificial membrane inside the microtiter plate wells. The aphids were then allowed to suck on the treated aphid diet and incubated at 23±1° C. 50±5% RH for 3 days. Aphid mortality and fecundity was then visually assessed.

[4] = test system: boll weevil (Anthonomus grandis); test: Test 4: control of boll weevil, 24-well microtiter plates with insect diet and eggs; conditions: egg and larval mortality after 5 days
Experimental: For evaluating control of boll weevil (Anthonomus grandis) the test unit consisted of 24-well-microtiter plates containing an insect diet and 20-30 A. grandis eggs.
The compounds or mixtures were formulated using a solution containing 75% water and 25% DMSO. Different concentrations of formulated compounds or mixtures were sprayed onto the insect diet at 20 μl, using a custom-built micro atomizer, at two replications.
as §1
After application, microtiter plates were incubated at 23±1° C., 50±5% RH for 5 days. Egg and larval mortality was then visually assessed. For the mixture tested the results are listed in tables 4.1 to 4.4, wherein the * marks synergistic control effect according to Colby's equation.

[5] = test system: tobacco budworm (Plutella xylostella); test: Test 5: control of Plutella xylostella, 96-well microtiter plates with insect diet and eggs; conditions: egg and larval mortality after 5 days
Experimental: For evaluating control of […] (Plutella xylostella) the test unit consisted of 96-well-microtiter plates containing an insect diet and 15-25 P. xylostella eggs.
The compounds or mixtures were formulated using a solution containing 75% water and 25% DMSO. Different concentrations of formulated compounds or mixtures were sprayed onto the insect diet at 5 μl, using a custom-built micro atomizer, at two replications.
as §1
After application, microtiter plates were incubated at 28±1° C., 80±5% RH for 5 days. Egg and larval mortality was then visually assessed.

[6] = Aedes aegypti, 48 h, 0.4 ppm, larval mortality after 2 days, read-out: Average control observed (%)
[7] = Heliothis virescens, 120 h, 0.4 ppm, egg and larval mortality after 5 days, read-out: Average control observed (%)
[8] = Aedes aegypti, 48 h, 4 ppm, larval mortality after 2 days, read-out: Average control observed (%)
[9] = 2 ppm, larval mortality after 2 days
[10] = 0.4 ppm, larval mortality after 2 days

Cc1c(COC(=O)[C@@H]2[C@H](/C=C(\Cl)C(F)(F)F)C2(C)C)cccc1-c1ccccc1 (racemic) [Bifenthrin (2b), bifenthrin]
pest or weed control at 0.4 ppm [1, 6]: 25%
pest or weed control at 0.4 ppm [2, 7]: 0%

C/C(=N\C#N)N(C)Cc1ccc(Cl)nc1 [Acetamiprid (3d), acetamiprid]
pest or weed control at 4 ppm [1, 8]: 0%

CN(C(=O)c1ccccc1)c1cccc(C(=O)Nc2c(Br)cc(C(F)(C(F)(F)F)C(F)(F)F)cc2C(F)(F)F)c1F [Broflanilide (16), broflanilide]
Average control observed (%) [1, 9]: 12.5%

CNC(=O)c1cc(Cl)cc(C)c1NC(=O)c1cc(Br)nn1-c1ncccc1Cl [Chlorantraniliprole (14b), Chlorantraniliprole]
Average control observed (%) ([3]; 0.4 ppm): 0%

CCOCn1c(-c2ccc(Cl)cc2)c(C#N)c(Br)c1C(F)(F)F [Chlorfenapyr (8), chlorfenapyr]
pest or weed control at 0.8 ppm ([1]; Aedes aegypti, 48 h, 0.8 ppm, larval mortality after 2 days, read-out: Average control observed (%)): 0%

CN/C(=N\[N+](=O)[O-])NCc1cnc(Cl)s1 [Clothianidin (3c), clothianidin]
pest or weed control at 1 ppm ([1]; Aedes aegypti, 48 h, 1 ppm, larval mortality after 2 days, read-out: Average control observed (%)): 0%

O=C(NCc1ncccn1)c1ccc(C2=NO[C@@](c3cc(Cl)c(F)c(Cl)c3)(C(F)(F)F)C2)c2ccncc12 [Compound I-1, 5-[(5S)-5-(3,5-dichloro-4-fluoro-phenyl)-5-(trifluoromethyl)-4H-isoxazol-3-yl]-N-(pyrimidin-2-ylmethyl)isoquinoline-8-carboxamide]
pest or weed control at 0.009 ppm ([1]; Aedes aegypti, 48 h, 0.009 ppm, larval mortality after 2 days, read-out: Average control observed (%)): 0%
pest or weed control at 0.048 ppm ([1]; Aedes aegypti, 48 h, 0.048 ppm, larval mortality after 2 days, read-out: Average control observed (%)): 0%
pest or weed control at 0.24 ppm ([1]; Aedes aegypti, 48 h, 0.24 ppm, larval mortality after 2 days, read-out: Average control observed (%)): 0%
Average control observed (%) ([3]; 0.009 ppm): 0%
Average control observed (%) ([3]; 0.24 ppm): 0%
Average control observed (%) ([4]; 0.048 ppm): 0%
Average control observed (%) ([4]; 0.24 ppm): 0%
Average control observed (%) ([5]; 0.05 ppm): 0%
pest or weed control at 0.009 ppm ([2]; Heliothis virescens, 120 h, 0.009 ppm, egg and larval mortality after 5 days, read-out: Average control observed (%)): 0%
pest or weed control at 0.048 ppm ([2]; Heliothis virescens, 120 h, 0.048 ppm, egg and larval mortality after 5 days, read-out: Average control observed (%)): 0%
pest or weed control at 0.24 ppm ([2]; Heliothis virescens, 120 h, 0.24 ppm, egg and larval mortality after 5 days, read-out: Average control observed (%)): 0%

CC1(C)C(C=C(Cl)Cl)C1C(=O)OC(C#N)c1ccc(F)c(Oc2ccccc2)c1 (centres unmarked) [Cyfluthrin (2c), cyfluthrin]
Average control observed (%) [1, 10]: 0%

CCN(C(=O)c1cnn(C(C)C(C)C)c1C)c1ccnnc1 (centres unmarked) [Dimpropyridaz (17b), dimpropyridaz]
Average control observed (%) ([3]; 2 ppm): 0%

CN/C(=N/CC1CCOC1)N[N+](=O)[O-] (centres unmarked) [Dinotefuran (3f), dinotefuran]
pest or weed control at 4 ppm ([1]; Aedes aegypti, 48 h, read-out: Average control observed (%)): 0%
pest or weed control at 20 ppm ([2]; Heliothis virescens, 120 h, 20 ppm, egg and larval mortality after 5 days, read-out: Average control observed (%)): 0%

N#Cc1nn(-c2c(Cl)cc(C(F)(F)F)cc2Cl)c(N)c1[S+]([O-])C(F)(F)F (centres unmarked) [Fipronil (1b), fipronil]
pest or weed control at 0.4 ppm [1, 6]: 0%
Average control observed (%) ([4]; 0.4 ppm): 12.5%
pest or weed control at 0.08 ppm ([2]; Heliothis virescens, 120 h, read-out: Average control observed (%)): 0%

Cc1cc(C(F)(C(F)(F)F)C(F)(F)F)ccc1NC(=O)c1cccc(I)c1C(=O)NC(C)(C)CS(C)(=O)=O [Flubendiamide (14a), Flubendiamide]
pest or weed control at 0.4 ppm [2, 7]: 12.5%

O=C1C=C(N(Cc2ccc(Cl)nc2)CC(F)F)CO1 [Flupyradifurone (3i), flupyradifurone]
Average control observed (%) ([3]; 2 ppm): 12.5%

O=[N+]([O-])NC1=NCCN1Cc1ccc(Cl)nc1 [Imidacloprid (3b), imidacloprid]
Average control observed (%) ([3]; 0.8 ppm): 0%

COC(=O)N(C(=O)N1CO[C@@]2(C(=O)OC)Cc3cc(Cl)ccc3C2=N1)c1ccc(OC(F)(F)F)cc1 [Indoxacarb (12), indoxacarb]
Average control observed (%) ([1]; 0.08 ppm, larval mortality after 2 days): 0%
Average control observed (%) [1, 10]: 0%
Average control observed (%) [1, 9]: 0%
Average control observed (%) ([4]; 0.08 ppm): 25%
Average control observed (%) ([2]; 0.4 ppm, egg and larval mortality after 5 days): 0%

COc1cccc(C(=O)NN(C(=O)c2cc(C)cc(C)c2)C(C)(C)C)c1C [Methoxyfenozide (11), methoxyfenozide]
pest or weed control at 0.4 ppm [2, 7]: 37.5%

CCOC(=O)OC1=C(c2cc(C)ccc2C)C(=O)N[C@]12CC[C@@H](OC)CC2 [Spirotetramat (13a), spirotetramat]
pest or weed control at 80 ppm ([1]; Aedes aegypti, 48 h, 80 ppm, larval mortality after 2 days, read-out: Average control observed (%)): 0%

O=C(NC(=O)c1c(F)cccc1F)Nc1cc(Cl)c(F)c(Cl)c1F [Teflubenzuron (9), teflubenzuron]
Average control observed (%) ([4]; 0.1 ppm): 12.5%

N#C/N=C1\SCCN1Cc1ccc(Cl)nc1 [Thiacloprid (3e), thiacloprid]
pest or weed control at 4 ppm [1, 8]: 50%

CN1COCN(Cc2cnc(Cl)s2)/C1=N\[N+](=O)[O-] [Thiamethoxam (3a), thiamethoxam]
Average control observed (%) ([4]; 0.03 ppm): 0%
Average control observed (%) ([5]; 0.03 ppm): 0%
pest or weed control at 0.03 ppm ([2]; Heliothis virescens, 120 h, 0.03 ppm, egg and larval mortality after 5 days, read-out: Average control observed (%)): 0%

CC1(C)C(C=C(Cl)Cl)C1C(=O)OC(C#N)c1cccc(Oc2ccccc2)c1 (stereo not drawn) [alpha-cypermethrin (2a), alpha-cypermethrin]
pest or weed control at 0.4 ppm [2, 7]: 25%

CC1(C)[C@H](/C=C(\Cl)C(F)(F)F)[C@@H]1C(=O)O[C@@H](C#N)c1cccc(Oc2ccccc2)c1 [lamda-cyhalothrin (2e), lamda-cyhalothrin]
Average control observed (%) ([1]; 0.16 ppm, larval mortality after 2 days): 0%
Average control observed (%) ([2]; 0.16 ppm, egg and larval mortality after 5 days): 50%

spinetoram [Spinetoram (4b)]
Average control observed (%) ([2]; 0.2 ppm, egg and larval mortality after 5 days): 0%
